Series [1] in a line: clinical. The settings on record: for Cmax: Dapagliflozin mean Cmax. The procedure:
The Cmax and the corresponding tmax were identified from the observed data. Log-linear regression of the terminal phase yielded the terminal rate constant (λz). The area under the plasma concentration time-curve during the dosing interval (AUCτ) was calculated by the log-linear trapezoidal rule. The area under the curve to infinity (AUC0-inf) was calculated as the sum of AUC(o-t) and Ct/z, where Ct is the observed plasma concentration obtained from the log-linear regression analysis of the last quantifiable time point and z is the terminal phase rate constant. Clearance (CL/F) was determined by dose/AUC0-inf, and the terminal half-life (t1/2) was calculated as 0.693/λz.

A short description of series [2]: Safety: adverse events, laboratory values, vital signs, ECG. Type of series: in vivo, human. The settings on record: as judged by the investigator. The procedure:
Blood samples were collected to evaluate anti-drug antibody (ADA) response to cotadutide. Serum samples were evaluated for ADA using a validated immunoassay. Adverse events (AEs) and serious adverse events (SAEs) were collected from the time of informed consent throughout the treatment period and including the follow-up period. AEs and SAEs were graded by severity and relationship to investigational product and SAEs were assessed for relationship to protocol procedures.

The conditions of series [3]: 10 mg/day PO, cited from earlier work.

Consider 1 molecule from patent US20230012936A1, “COMBINATION THERAPY USING GLUCAGON AND GLP-1 CO-AGONISTS FOR THE TREATMENT OF OBESITY” (MEDIMMUNE, LLC, priority 2019, published 2023).

With `CCOc1ccc(Cc2cc([C@@H]3O[C@H](CO)[C@@H](O)[C@H](O)[C@H]3O)ccc2Cl)cc1` [dapagliflozin], in series [1] (dapagliflozin 10 mg/day PO), the “Impact of cotadutide on dapagliflozin oral absorption” value is on record as “marginal impact”. In addition, in series [1] (human, plasma, oral, 10 mg/day), the half-life was around 8 h. In addition, the Cmax in series [1] (human, plasma, oral, cotadutide group, Day −1 (cotadutide not yet co-administered)) came to 117 ng/mL; in series [1] (human, plasma, oral, group receiving dapagliflozin and placebo, Day 7), 92 ng/mL; in series [1] (human, plasma, oral, group receiving dapagliflozin and placebo, Day 14), 95.6 ng/mL; in series [1] (human, plasma, oral, group receiving dapagliflozin and placebo, Day 28), 112 ng/mL; in series [1] (human, plasma, oral, group receiving dapagliflozin and placebo, Day −1), 110 ng/mL; in series [1] (human, plasma, oral, in the presence of cotadutide, Day 7), 84.4 ng/mL. Moreover, the Cmax in series [1] (human, plasma, oral, in the presence of cotadutide, Day 14) came out at 61.1 ng/mL; in series [1] (human, plasma, oral, in the presence of cotadutide, Day 28), 94.2 ng/mL. In addition, the “Incidence of dapagliflozin-related TEAEs, cotadutide group” value in series [2] is given as 4.0%. Besides, the “Incidence of dapagliflozin-related TEAEs, placebo group” value in series [2] amounted to 8.3%. Moreover, in series [3] (Dapagliflozin NDA 202293), the “Dapagliflozin Cmax (literature)” value is 120 ng/mL. Moreover, the “Dapagliflozin tmax (literature)” value in series [3] (Dapagliflozin NDA 202293) was 1 h. Further, the “Dapagliflozin half-life (literature)” value in series [3] (literature data) is 15 h.
